What follows are compounds tested on Jurkat cells (assay: Cytotoxicity of compounds, CellTiter-Glo). Conditions: Homo sapiens, Jurkat, Table 3; Cytotoxicity of Compounds on Jurkat Cells; read-out: EC50.
Format: cell-based, Human
From the text: Cell lines used: Human T-cell leukemia cell line Jurkat (ATCC: TIB-152); HCC1954 (ATCC: CRL. 2338); Human Pancreatic cells lines: AsPC-1 (ATCC: CRL-1682), BxPC-3 (ATCC: CRL.1687), HPAF-II (ATCC: CRL.1997), MiaPaCa2 (ATCC: CRL.1420), PANC-1 (ATCC: CRL.1469), Capan-1 (ATCC: HTB-79), Capan-2 (ATCC: HTB-80) and the Human gastric carcinoma cell line NCI-N87 (ATCC: CRL. 5822); AML-193 (ATCC: CRL.9589), CCRF-CEM (ATCC: CCL-119), DU145 (ATCC: HTB-81), PC-3 (ATCC: CRL.1435), A-431 (ATCC: CRL.1555), HT-29 (ATCC: HTB-38), A-172 (ATCC: CRL.1620), NCI-H358 (ATCC: CRL.5807), A549 (ATCC: CCL-185), Colo-205 (ATCC: CCL-222), MDA-MB-231 (ATCC: HTB-26), OVCAR-3 (ATCC: HTB-161), OV-90 (ATCC: CRL.11732), OE19 (Sigma: 96071721), RT 112/84 (Sigma: 85061106).
On the day prior to adding compounds, HCC1954 AsPC-1, BxPC-3, HPAF-II, MiaPaCa2, PANC-1, Capan-1, Capan-2 and NCI-N87 cells were added to opaque-walled 96-well tissue culture-treated microtiter plates using complete growth medium at a density of 2500 cells/100 microlitre (uL) of medium. These adherant cell lines cells were incubated for one night at 37° C./5% CO2 to allow the cells to attach to the microtiter plate surface. On the day that compounds were added, Jurkat cells are added to separate 96-well microtiter plates at 2500 cells/100 uL using the same growth medium as HCC1954. Compound were first serially diluted using dimethyl sulfoxide, and then the prepared dilutions are added to complete growth medium at five-times the final concentration—compounds were then titrated 1:3, eight steps. A control with no compound (growth medium alone) was included on each microtiter plate in sextuplicate. The prepared compounds titrations were added (twenty-five uL/well) in triplicate. The cells and compound titrations were incubated at 37° C./5% CO2 for three nights. After the incubation, cell viability is measured using CellTiter-Glo® reagent by adding thirty uL of prepared CellTiter-Glo® to each assay well. The assay is incubated for at least twenty minutes in the dark prior to measuring emitted luminescence using a microplate luminometer (500 ms integration time). The collected relative luminescence units (RLU) are converted to % cytotoxicity using the Growth medium alone control mentioned above (% Cytotoxicity=1−[Well RLU/average medium alone control RLU]).
GraphPad Prism was used for generation of EC50 values using three parameter non-linear regression curve fitting.

**Q.** How did the EC50 turn out when CN[C@H](C(=O)N[C@H](C(=O)N(C)[C@H](/C=C(\C)C(=O)NS(=O)(=O)Cc1ccc(C2(NC(=O)C(F)(F)F)CC2)cc1)C(C)C)C(C)(C)C)C(C)(C)c1ccccc1 [Compound 57, (S,E)-2,5-dimethyl-N-(4-(1-(2,2,2-trifluoroacetamido)cyclopropyl)benzylsulfonyl)-4-((S)—N,3,3-trimethyl-2-((S)-3-methyl-2-(methylamino)-3-phenylbutanamido)butanamido)hex-2-enamide] was run?
**A.** Its EC50 is 0.566 nM.

**Q.** For CN[C@H](C(=O)N[C@H](C(=O)N(C)[C@H](/C=C(\C)C(=O)NS(=O)(=O)CCOC)C(C)C)C(C)(C)C)C(C)(C)c1ccccc1 [Compound 34, (S,E)-N-(2-methoxyethylsulfonyl)-2,5-dimethyl-4-((S)—N,3,3-trimethyl-2-((S)-3-methyl-2-(methylamino)-3-phenylbutanamido)butanamido)hex-2-enamide], which EC50 is on record?
**A.** Its EC50 is 0.2 nM.

**Q.** For CN[C@H](C(=O)N[C@H](C(=O)N(C)[C@H](/C=C(\C)C(=O)NS(=O)(=O)c1cccc(C#N)c1)C(C)C)C(C)(C)C)C(C)(C)c1ccccc1 [Compound 18, (S,E)-N-(3-cyanophenylsulfonyl)-2,5-dimethyl-4-((S)—N,3,3-trimethyl-2-((S)-3-methyl-2-(methylamino)-3-phenylbutanamido)butanamido)hex-2-enamide], which EC50 is on record?
**A.** The EC50 was 1.36 nM.

**Q.** Which EC50 does the source give for CN[C@H](C(=O)N[C@H](C(=O)N(C)[C@H](/C=C(\C)C(=O)NS(=O)(=O)c1cccs1)C(C)C)C(C)(C)C)C(C)(C)c1ccccc1 [Compound 50, (S,E)-2,5-dimethyl-N-(thiophen-2-ylsulfonyl)-4-((S)—N,3,3-trimethyl-2-((S)-3-methyl-2-(methylamino)-3-phenylbutanamido)butanamido)hex-2-enamide] here?
**A.** The EC50 was 0.171 nM.

**Q.** Which EC50 does the source give for CN[C@H](C(=O)N[C@H](C(=O)N(C)[C@H](/C=C(\C)C(=O)NS(=O)(=O)c1ccc(Br)cc1)C(C)C)C(C)(C)C)C(C)(C)c1ccccc1 [Compound 29, (S,E)-N-(4-bromophenylsulfonyl)-2,5-dimethyl-4-((S)—N,3,3-trimethyl-2-((S)-3-methyl-2-(methylamino)-3-phenylbutanamido)butanamido)hex-2-enamide] here?
**A.** The EC50 was 0.121 nM.

**Q.** For CN[C@H](C(=O)N[C@H](C(=O)N(C)[C@H](/C=C(\C)C(=O)NS(=O)(=O)NCc1ccccc1F)C(C)C)C(C)(C)C)C(C)(C)c1ccccc1 [Compound 26, (S,E)-N—(N-(2-fluorobenzyl)sulfamoyl)-2,5-dimethyl-4-((S)—N,3,3-trimethyl-2-((S)-3-methyl-2-(methylamino)-3-phenylbutanamido)butanamido)hex-2-enamide], which EC50 is on record?
**A.** The EC50 was 0.105 nM.

Same assay, conditions: Homo sapiens, Jurkat, Table 6; Compound Cytotoxicity on Jurkat; read-out: EC50

**Q.** For CN[C@H](C(=O)N[C@H](C(=O)N(C)[C@H](/C=C(\C)C(=O)NS(=O)(=O)Cc1ccccc1)C(C)C)C(C)(C)C)C(C)(C)c1ccc(-c2ccc(OC)cc2)cc1 [Compound 88, (S,E)-N-(benzylsulfonyl)-4-((S)-2-((S)-3-(4′-methoxybiphenyl-4-yl)-3-methyl-2-(methylamino)butanamido)-N,3,3-trimethylbutanamido)-2,5-dimethylhex-2-enamide], which EC50 is on record?
**A.** The EC50 was 0.641 nM.

**Q.** How did the EC50 turn out when CN[C@H](C(=O)N[C@H](C(=O)N(C)[C@H](/C=C(\C)C(=O)NS(=O)(=O)c1ccccc1N)C(C)C)C(C)(C)C)C(C)(C)c1ccccc1 [Compound 98, (S,E)-N-(2-aminophenylsulfonyl)-2,5-dimethyl-4-((S)—N,3,3-trimethyl-2-((S)-3-methyl-2-(methylamino)-3-phenylbutanamido)butanamido)hex-2-enamide] was run?
**A.** The EC50 was 0.077 nM.

**Q.** With CN[C@H](C(=O)N[C@H](C(=O)N(C)[C@H](/C=C(\C)C(=O)NS(=O)(=O)c1ccc(N)c(OC(F)(F)F)c1)C(C)C)C(C)(C)C)C(C)(C)c1ccccc1 [Compound 108, (S,E)-N-(4-amino-3-(trifluoromethoxy)phenylsulfonyl)-2,5-dimethyl-4-((S)—N,3,3-trimethyl-2-((S)-3-methyl-2-(methylamino)-3-phenylbutanamido)butanamido)hex-2-enamide] as the compound, how does the EC50 read?
**A.** The EC50 was 0.017 nM.

Same assay, conditions: Homo sapiens, Jurkat, Table 7; Cytotoxicity on Jurkat; read-out: EC50

**Q.** Which EC50 does the source give for CN[C@H](C(=O)N[C@H](C(=O)N(C)[C@H](/C=C(\C)C(=O)NS(=O)(=O)c1ccc(N)c(OC(F)(F)F)c1)C(C)C)C(C)(C)C)C(C)(C)c1ccccc1 [Compound 108, (S,E)-N-(4-amino-3-(trifluoromethoxy)phenylsulfonyl)-2,5-dimethyl-4-((S)—N,3,3-trimethyl-2-((S)-3-methyl-2-(methylamino)-3-phenylbutanamido)butanamido)hex-2-enamide] here?
**A.** The EC50 was 0.017 nM.

— US11617777B2, “Cytotoxic and anti-mitotic compounds, and methods of using the same” (ZYMEWORKS BC INC., priority 2013, dated 2023)
